Patent publication US8110217B2, “Sphingomyelin liposomes for the treatment of hyperactive bladder disorders” (priority 2001, dated 2012)

System: chemically induced bladder hyperactivity
Test: Cystometrogram (CMG): liposomes of various lipids infused in the presence of KCl after protamine sulfate (Examples 1-4)
Format: in vivo, female Sprague-Dawley rats
Source text: Bladder reflex activity in thirty-four (34) female Sprague-Dawley rats (200-250 g) was studied by cystometry performed under anesthesia with urethane (1.2 g/kg) administered by subcutaneous injection. Body temperature was maintained in the physiologic range using a heating lamp. A transurethral bladder catheter (PE-50) connected by a three-way stopcock to a pressure transducer and to a syringe pump was used to record intravesical pressure and to infuse solutions into the bladder. A control cystometrogram (CMG) was performed by slowly filling the bladder with saline at a rate of 0.04 ml/min to elicit repetitive voiding. The bladder contraction frequency of the reflex bladder contractions were recorded. After performing control CMGs with saline infusion for 3 hours, protamine sulfate (PS) (Sigma Chemical; 10 mg/ml) was infused at a rate of 0.04 ml/min for 1 hour to increase epithelial permeability followed by infusion of the irritant KCl (500 mM) for 1 hour. Subsequently, liposomes made from lipids of various compositions then were infused in the presence of a high concentration of KCl for 2 hours.
The effect of charge on the lipid headgroup in reducing bladder activity in three animal groups (n=5) was determined. Neutrally charged liposomes prepared with L-α-PC (a zwitterionic lipid egg PC) were compared against liposomes having either a positively or negatively charged polar headgroup, namely, 1,2-dioleoyl-3-trimethylammonium-propane (DOTAP) and 1-α-phosphatidylserine (POPS), respectively.
Liposomes were prepared as described by Kirby and Gregoriadis (Kirby, C. J. and Gregoriadia, G., “A simple procedure for preparing liposomes capable of high encapsulation efficiency under mild conditions,” Liposome Technology, G. Gregnoriadis, Ed., C.R.C. Press, Inc., Boca Raton, Fla., 1984, Vol. 1, p. 20, 1984). Briefly, liposomes were constructed as a 2:1 molar ratio of L-α-phosphatidylcholine and cholesterol (Sigma Chemical Co., St. Louis, Mo.) to a final lipid concentration of 1-2 mg/ml in saline. Lipids in chloroform were dried down together in the proper ratio under nitrogen. The residues were reconstituted as liposomes in saline or 500 mM KCl by intense sonication. This lipid composition produced liposomes with no net charge.
Statistical analyses were performed using Student's t test for paired or unpaired data, where applicable. A P-value less than 0.05 was considered significant. All data were expressed as means±S.E. (standard error).
Neutrally charged liposomes prepared with sphingomyelin were compared against liposomes prepared from dihydrosphingomyelin and two pure synthetic lipids: 1,2-distearoyl-sn-glycero-3-phosphocholine (DSPC) and 1,-oleoyl-2-stearoyl-sn-glycero-3-phosphocholine (OSPC).
The methodology of this investigation is the same as described above in Example 1 with the exception that the preparation of liposomes was modified from Example 1. Briefly, liposomes were constructed as a 2:1 molar ratio of sphingomyelin and cholesterol (Sigma Chemical Co., St. Louis, Mo.) to a final lipid concentration of 1-2 mg/ml in saline. Lipids in chloroform were dried down together in the proper ratio under nitrogen. The residues were reconstituted as liposomes in saline or 500 mM KCl by intense sonication. This lipid composition produced sphingomyelin liposomes with no net charge.
Sphingomyelin devoid of its phosphorylcholine head group generates the molecule ceramide, a well known lipid second messenger which mediates a wide range of cellular responses to external stimuli, and also is used for the biosynthesis of sphingomyelin and glycosphingolipids. Because ceramide cannot form stable liposomes by itself, its effect on bladder hyperactivity was tested by including it at 1 mol % in an inert lipid, namely, 1,2-distearoyl-sn-glycero-3-phosphocholine (DSPC).
The methodology of this investigation is the same as described above in Example 1 with the exception that the preparation of liposomes was modified from Example 1. […]

[1] = included at 1 mol % in DSPC liposomes

Row | Compound | effect on efficacy of DSPC liposomes in reducing bladder contraction frequency [1] | effect on efficacy of DSPC liposomes in reducing bladder contraction frequency (DSPC/cerebroside and cholesterol liposomes)
1 | CCCCCCCCCCCCC/C=C/[C@@H](O)[C@@H](N)CO [sphingosine] | had a similar effect | –
2 | ceramide | significantly increased the efficacy of DSPC | –
3 | cerebroside | – | significantly increased the efficacy of DSPC
